Measurements as given in publication PMC7065246 (Journal of the American Chemical Society, 2020).

What was measured:
PhqK [1] = molecular target: T1, PhqK (Penicillium fellutanum, UniProt L0E4H0); assay: crystal structures; type: binding; conditions: out conformation with and without substrate
PhqK [2] = molecular target: T1, PhqK; assay: Michaelis-Menten kinetics of spirocyclization; type: biochemical; conditions: FAD-dependent monooxygenase reaction; details in supplement

T1 sequence (L0E4H0 whole entry): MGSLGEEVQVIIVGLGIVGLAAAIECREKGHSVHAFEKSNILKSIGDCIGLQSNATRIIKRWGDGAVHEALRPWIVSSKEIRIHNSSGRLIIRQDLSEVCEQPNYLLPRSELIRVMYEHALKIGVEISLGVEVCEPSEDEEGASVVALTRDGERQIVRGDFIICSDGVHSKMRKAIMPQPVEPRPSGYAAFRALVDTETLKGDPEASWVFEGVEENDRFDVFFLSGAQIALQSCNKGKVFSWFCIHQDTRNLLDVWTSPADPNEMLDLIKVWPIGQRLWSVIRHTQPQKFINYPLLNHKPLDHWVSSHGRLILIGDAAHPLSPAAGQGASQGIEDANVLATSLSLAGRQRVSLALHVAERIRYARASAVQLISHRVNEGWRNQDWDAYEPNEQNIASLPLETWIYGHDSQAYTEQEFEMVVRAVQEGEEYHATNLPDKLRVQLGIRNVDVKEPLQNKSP

Molecule	crystal structures (ligand-free 1.71 Å and substrate complexes) (PhqK [1])	Km (PhqK [2])
Cc1cc2nc3c(=O)[nH]c(=O)nc-3n(C[C@H](O)[C@H](O)[C@H](O)COP(=O)(O)OP(=O)(O)OC[C@H]3O[C@@H](n4cnc5c(N)ncnc54)[C@H](O)[C@@H]3O)c2cc1C [FAD]	substrate bound and unbound PhqK structures, the flavin was observed in the “out” conformation	
paraherquamide L [compound 15]		19.4 ± 5.2 µM
